Measurements published in patent US9187492B2, “Pyripyropene derivative having ACAT2 inhibiting activity and stable to metabolizing enzymes” (School Juridical Person Kitasato Institute, priority 2010, dated 2015).

How the values were obtained:
ACAT2 = biological target: T1, ACAT2 (Mus musculus, UniProt O88908); assay: Measurement of ACAT2-inhibiting activity (murine hepatic microsome, [14C]cholesteryl oleate formation); format: biochemical; settings: for IC50: murine hepatic microsome membrane fraction, 5 min at 37° C., read-out: Inhibitory activity (concentration required for 50% inhibition of ACAT 2 = IC50); for Specific activity ((IC50 of the test compound)/(IC50 of PRD 043)): relative to PRD 043, class symbols
T1 construct: The resulting sediment was collected as a microsome fraction; from tissue; host or cells: mouse liver (hepatic microsome membrane fraction)
T1 sequence (O88908 1-525): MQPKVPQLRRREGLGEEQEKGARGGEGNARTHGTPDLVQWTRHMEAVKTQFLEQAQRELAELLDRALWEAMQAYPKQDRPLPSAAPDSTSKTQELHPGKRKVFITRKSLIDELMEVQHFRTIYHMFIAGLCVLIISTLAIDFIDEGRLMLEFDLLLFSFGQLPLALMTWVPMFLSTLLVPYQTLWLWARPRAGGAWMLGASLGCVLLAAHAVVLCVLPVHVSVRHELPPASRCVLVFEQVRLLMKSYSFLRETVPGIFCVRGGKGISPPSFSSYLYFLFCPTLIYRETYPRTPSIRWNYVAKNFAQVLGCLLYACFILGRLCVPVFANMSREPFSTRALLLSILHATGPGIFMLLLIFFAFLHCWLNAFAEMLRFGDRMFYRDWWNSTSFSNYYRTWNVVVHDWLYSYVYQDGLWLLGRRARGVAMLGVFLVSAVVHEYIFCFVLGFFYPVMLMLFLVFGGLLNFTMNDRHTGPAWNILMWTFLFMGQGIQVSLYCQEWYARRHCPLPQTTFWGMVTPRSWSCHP
Method: The enzyme source which was used was a membrane fraction derived from murine hepatic microsome. Mouse livers were homogenized in buffer solution A (50 mM Tris HCl solution (pH 7.8), 1 mM ethylene diamine tetraacetate, and 1 mM phenylmethanesulfonyl fluoride) using a Potter-type homogenizer (Tokyo-Riko). The homogenate was centrifuged at 12000×g, and the supernatant was subjected to ultracentrifugation at 100000×g. The resulting sediment was collected as a microsome fraction, and this fraction was adjusted so as to have a protein concentration of 5 mg/mL using buffer solution A.
As a control, 10 μL of methanol were used in place of the pyripyropene derivative.
The chloroform layer was evaporated to dryness and was used to spot a thin layer chromatography plate (silica gel plate, Merck, 0.5 mm thickness). Elution for separation was carried out using hexane/diethyl ether/acetic acid (70:30:1, v/v) as an eluant.
wherein the background is the radioactivity of a thin layer chromatography plate which was not spotted.

[1] = Stability against metabolizing enzymes in the liver (hepatic microsome); settings: time until remaining amount reached 50%, 37° C.; for half-life at 6 μg/mL: female, Sprague-Dawley (SD), rat, liver microsomes, pH 7.4, Half-life; for Half-life: female SD rat hepatic microsome, 6 μg/mL, pH 7.4

Structure (SMILES)	IC50 (ACAT2) [nM]	Specific activity ((IC50 of the test compound)/(IC50 of PRD 043)) (ACAT2)	half-life at 6 μg/mL [1] [h]	Half-life [1] [h]
Cc1ccccc1[C@@H]1OCC2(C)C3C[C@H](OC(=O)c4ccc(F)cc4)[C@@]4(C)Oc5cc(-c6cccnc6)oc(=O)c5[C@H](O)C4[C@@]3(C)CC[C@@H]2O1 (stereo partly drawn) [PRD155, 1,11-O-o-methylbenzylidene-7-O-p-fluorobenzoyl-1,7,11-trideacetylpyripyropene A]	0.5 to 1	+++ (10<specific activity≦20)	≥ 9	>9
Cc1ccc([C@@H]2OCC3(C)C4C[C@H](OC(=O)c5ccc(F)cc5)[C@@]5(C)Oc6cc(-c7cccnc7)oc(=O)c6[C@H](O)C5[C@@]4(C)CC[C@@H]3O2)cc1 (stereo partly drawn) [PRD156, 1,11-O-p-methylbenzylidene-7-O-p-fluorobenzoyl-1,7,11-trideacetylpyripyropene A]	< 0.5	++++ (20<specific activity)	≥ 9	>9
Cc1ccc([C@@H]2OCC3(C)C4C[C@H](OC(=O)c5ccc(C#N)cc5)[C@@]5(C)Oc6cc(-c7cccnc7)oc(=O)c6[C@H](O)C5[C@@]4(C)CC[C@@H]3O2)c(C)c1 (stereo partly drawn) [PRD159, 1,11-O-o,p-dimethylbenzylidene-7-O-p-cyanobenzoyl-1,7,11-trideacetylpyripyropene A]	0.5 to 1	+++ (10<specific activity≦20)	≥ 9	>9
COc1ccccc1[C@@H]1OCC2(C)C3C[C@H](OC(=O)c4ccc(C#N)cc4)[C@@]4(C)Oc5cc(-c6cccnc6)oc(=O)c5[C@H](O)C4[C@@]3(C)CC[C@@H]2O1 (stereo partly drawn) [PRD161, 1,11-O-o-methoxybenzylidene-7-O-p-cyanobenzoyl-1,7,11-trideacetylpyripyropene A]	0.5 to 1	+++ (10<specific activity≦20)	≥ 9	>9
CC12CO[C@@H](c3ccccc3F)O[C@H]1CC[C@@]1(C)C2C[C@H](OC(=O)c2ccc(C#N)cc2)[C@@]2(C)Oc3cc(-c4cccnc4)oc(=O)c3[C@H](O)C12 (stereo partly drawn) [PRD163, 1,11-O-o-fluorobenzylidene-7-O-p-cyanobenzoyl-1,7,11-trideacetylpyripyropene A]	0.5 to 1	+++ (10<specific activity≦20)	≥ 9	>9
CC(=O)O[C@H]1CC[C@@]2(C)C(C[C@H](OC(C)=O)[C@@]3(C)Oc4cc(-c5cccnc5)oc(=O)c4[C@H](O)C23)C1(C)COC(=O)c1ccccc1 (stereo partly drawn) [PRD177, 11-O-benzoyl-11-deacetylpyripyropene A]	1 to 10	+++ (10<specific activity≦20)	≥ 9	>9
CC(=O)O[C@H]1CC2C3(C)CO[C@@H](c4ccccc4)O[C@H]3CC[C@]2(C)C2[C@@H](O)c3c(cc(-c4cccnc4)oc3=O)O[C@@]21C (stereo partly drawn) [PRD186, 1,11-O-benzylidene-1,11-dideacetylpyripyropene A]	1 to 10	+++ (10<specific activity≦20)	≥ 9	>9
CC(=O)O[C@H]1CC2C(C)(COC(=O)C(C)C)[C@@H](OC(=O)C(C)C)CC[C@]2(C)C2[C@@H](O)c3c(cc(-c4cccnc4)oc3=O)O[C@@]21C (stereo partly drawn) [PRD187, 1,11-O-diisobutyryl-1,11-dideacetylpyripyropene A]	0.5 to 1	+++ (10<specific activity≦20)	≥ 9	>9

Other lines, results leading:

IC50 (ACAT2) [nM]	Specific activity ((IC50 of the test compound)/(IC50 of PRD 043)) (ACAT2)	half-life at 6 μg/mL [1] [h]	Half-life [1] [h]	Structure (SMILES)
0.5 to 1	+++ (10<specific activity≦20)	≥ 9	>9	CC(=O)O[C@H]1CC[C@@]2(C)C(C[C@H](OC(=O)c3ccc(C#N)cc3)[C@@]3(C)Oc4cc(-c5cccnc5)oc(=O)c4[C@H](O)C23)C1(C)COC(=O)c1ccccc1 (stereo partly drawn) [PRD143, 7-O-p-cyanobenzoyl-7,11-dideacetyl-11-O-benzoylpyripyropene A]
< 0.5	++++ (20<specific activity)	≥ 9	>9	Cc1cccc(C2OCC3(C)C(CCC4(C)C3CC(OC(=O)c3ccc(C#N)cc3)C3(C)Oc5cc(-c6cccnc6)oc(=O)c5C(O)C43)O2)c1 (stereo not drawn) [PRD157, 1,11-O-m-methylbenzylidene-7-O-p-cyanobenzoyl-1,7,11-trideacetylpyripyropene A]
1 to 10	+++ (10<specific activity≦20)	≥ 9	>9	Cc1cccc([C@@H]2OCC3(C)C4C[C@H](OC(=O)c5ccc(F)cc5)[C@@]5(C)Oc6cc(-c7cccnc7)oc(=O)c6[C@H](O)C5[C@@]4(C)CC[C@@H]3O2)c1 (stereo partly drawn) [PRD158, 1,11-O-m-methylbenzylidene-7-O-p-fluorobenzoyl-1,7,11-trideacetylpyripyropene A]
0.5 to 1	+++ (10<specific activity≦20)	≥ 9	>9	Cc1ccc([C@@H]2OCC3(C)C4C[C@H](OC(=O)c5ccc(F)cc5)[C@@]5(C)Oc6cc(-c7cccnc7)oc(=O)c6[C@H](O)C5[C@@]4(C)CC[C@@H]3O2)c(C)c1 (stereo partly drawn) [PRD160, 1,11-O-o,p-dimethylbenzylidene-7-O-p-fluorobenzoyl-1,7,11-trideacetylpyripyropene A]
1 to 10	+++ (10<specific activity≦20)	≥ 9	>9	COc1ccccc1[C@@H]1OCC2(C)C3C[C@H](OC(=O)c4ccc(F)cc4)[C@@]4(C)Oc5cc(-c6cccnc6)oc(=O)c5[C@H](O)C4[C@@]3(C)CC[C@@H]2O1 (stereo partly drawn) [PRD162, 1,11-O-o-methoxybenzylidene-7-O-p-fluorobenzoyl-1,7,11-trideacetylpyripyropene A]
0.5 to 1	+++ (10<specific activity≦20)	≥ 9	>9	CC12CO[C@@H](c3ccccc3F)O[C@H]1CC[C@@]1(C)C2C[C@H](OC(=O)c2ccc(F)cc2)[C@@]2(C)Oc3cc(-c4cccnc4)oc(=O)c3[C@H](O)C12 (stereo partly drawn) [PRD164, 1,11-O-o-fluorobenzylidene-7-O-p-fluorobenzoyl-1,7,11-trideacetylpyripyropene A]
0.5 to 1	+++ (10<specific activity≦20)	≥ 9	>9	CC1(COC(=O)c2ccccc2)C2C[C@H](OC(=O)c3ccc(C#N)cc3)[C@@]3(C)Oc4cc(-c5cccnc5)oc(=O)c4[C@H](O)C3[C@@]2(C)CC[C@@H]1OC(=O)c1ccccc1 (stereo partly drawn) [PRD166, 7-O-p-cyanobenzoyl-1,11-O-dibenzoyl-1,7,11-trideacetylpyripyropene A]
0.5 to 1	+++ (10<specific activity≦20)	≥ 9	>9	CCCCCC(=O)OCC1(C)C2C[C@H](OC(=O)c3ccc(C#N)cc3)[C@@]3(C)Oc4cc(-c5cccnc5)oc(=O)c4[C@H](O)C3[C@@]2(C)CC[C@@H]1OC(=O)CCCCC (stereo partly drawn) [PRD167, 7-O-p-cyanobenzoyl-1,11-O-dihexanoyl-1,7,11-trideacetylpyripyropene A]
1 to 10	+++ (10<specific activity≦20)	≥ 9	>9	CC12CO[C@@H](c3cccc4ccccc34)O[C@H]1CC[C@@]1(C)C2C[C@H](OC(=O)c2ccc(C#N)cc2)[C@@]2(C)Oc3cc(-c4cccnc4)oc(=O)c3[C@H](O)C12 (stereo partly drawn) [PRD180, 1,11-O-o-naphthylidene-7-O-p-cyanobenzoyl-1,7,11-trideacetylpyripyropene A]
0.5 to 1	+++ (10<specific activity≦20)	≥ 9	>9	Cc1cccc(C)c1[C@@H]1OCC2(C)C3C[C@H](OC(=O)c4ccc(C#N)cc4)[C@@]4(C)Oc5cc(-c6cccnc6)oc(=O)c5[C@H](O)C4[C@@]3(C)CC[C@@H]2O1 (stereo partly drawn) [PRD181, 1,11-O-o,o-dimethylbenzylidene-7-O-p-cyanobenzoyl-1,7,11-trideacetylpyripyropene A]
